This note sets out measurements from patent US12447135B2 (University of South Florida, priority 2021, dated 2025).

Assay [1] has as its system C. elegans. Description: Lifespan assay in C. elegans. Format: in vivo. The conditions noted are these: 10 μM. As to the method:
C. elegans was used as a model for determining the impact of selected compounds on aging and AD-like phenotypes. The wild-type (N2) and CL2122 (dvls15 [9pPD30.38) unc-54(vector)+(pCL26)mtl-2::GFP]) were propagated at 20° C. AD transgenic worms model CL2006 (dvls [pCL12(unc-54/human abeta peptide 1-42 minigene)+pRF4), CL4176 (dvls27[myo-3p::A-Beta (1-42)::let-851 3tUTR)+rol-6 (su1006] and CL2355 (dvls 50 [pCL45 9snb-1::Abeta 1-42::3t UTR 9 log)+mtl-2::GFP]) were maintained at 16° C. All strains were cultured on solid nematode growth medium (NGM) consisting of 3 g/L NaCl, 2.5 g/L peptone, 5 mg/L cholesterol, 1 mM CaCl2), 1 mM MgSO4, 25 mM KH2PO4, and 17 g/L agar and seeded with OP50 (Escherichia coli strain) as a food supply. The worms were allowed to grow up to the adult stage, and egg carrying worms were used to isolate age-synchronized eggs using the bleaching method (Porta-de-la-Riva et al., 2012). […] (N2 and CL2122) or 16° C. (CL2006, CL4176, and CL2355). All of the strains used were acquired from the University of Minnesota-Caenorhabditis Genetics Center, which is funded by the NIH Office of Research Infrastructure Programs (P40 OD010440).
To determine the impact of selected compounds on age related decline in brain health, the lifespan of the worms was first measured. The L1 worms were cultured in 96-well plates on S-complete media containing E. coli OP50 and antibiotics (about 10-15 animals per well). […] The 0.6 mM Fluorodeoxyuridine (FUDR; 30 μl) was added to each well after 3 days and animals were monitored every other day for viability. The CL4176 and CL2006 worms were grown at 16° C. and N2 worms were grown at 20° C.

Assay [2] has as its system C. elegans CL4176. Put plainly: Paralysis assay in C. elegans CL4176. Format: in vivo. As to conditions: CL4176 worms, 10 μM, vs non-treated controls. As to the method: For paralysis assays, synchronized eggs of CL4176 were kept at 16° C. for 48 h, and the worms were transferred onto NGM plates. […] Counting was performed at 2 h intervals, typically after 14 h, at 23° C., and until the last worm became paralyzed. […] Each C. elegans experiment was conducted with at least 100 worms.

Assay [3] deals with C. elegans overexpressing human Aβ. Description: Aβ accumulation in C. elegans (thioflavin S staining, western blot). It counts as in vivo. As to conditions: CL2006 worms overexpressing human Aβ, vs DMSO controls. As to the method:
To determine the FFAR2 signal activating property of selected compounds, SK-N-SH cells were treated with 10 μM of shortlisted compounds for 30 min at 37° C. and harvested for total protein extraction. Cells were harvested after 30 min of incubation because ERK1/2 phosphorylation upon FFAR2 activation is a quick event (Jiao et al., 2002; Bhattacharjee et al., 2010). Total protein from the cells was extracted using a lysis buffer [consisting of 10 mmol/L Tris (pH 7.6), 150 mmol/L NaCl, 10 mmol/L Sodium orthovanadate, 10 mmol/L Sodium Pyrophosphate, 100 mmol/L Sodium fluoride, 1 mmol/L EDTA, 1 mmol/L EGTA, 1% Triton X-100, 0.5% NP-40 and a cocktail of protease inhibitors (Roche); Yadav et al., 2011, 2017; Ahmadi et al., 2019, 2020a]. After sonication, cell extracts were centrifuged at 8,000×g for 10 min at 4° C., and the supernatant was separated in a fresh tube. The total protein concentration of the supernatant was measured using a BCA protein assay kit. […] Band densities were also quantified using NIH ImageJ software. β-actin was used as an internal control.
Then, the worm bodies were permeabilized in 1% Triton X-100, 125 mM Tris (pH 7.4), and 5% fresh β-mercaptoethanol. […] A total of 20 worms were counted from each group.
Background: Immunoblotting shows a protein as a band on a membrane.

The subject of assay [4] is SK-N-SH cells. Put plainly: Senescence β-galactosidase staining. It counts as cell-based, human. The conditions noted are these: Aβ-treated cells, Fenchol. As to the method: After overnight incubation, Aβ 25-32 (25 μM) peptide was added to the cells for 4 h. The Senescence β-Galactosidase Staining Kit (Cell Signaling, USA) was used for the detection of the expression of β-galactosidase activity, following the manufacturer's instructions.

Assay [5] concerns proteasome. Description: Proteasome activity assay in C. elegans. It counts as in vivo. The conditions noted are these: C. elegans (CL2006). As to the method:
The CL2006 strain, SK-N-SH cells, and brain tissues were sonicated in a lysis buffer (150 mM NaCl, 50 mM HEPES, 2 mM DTT, 20 mM NaF, 5 mM EDTA, 2.5 mM sodium pyrophosphate, 1 mM sodium orthovanadate, and 1 mM α-glycerophosphoric acid) and then centrifuged at 15,000 g at 4° C. for 15 min. Total protein was assayed using BCA kit and 20 μg protein was mixed with 140 μM suc-leu-leu-val-tyr-7-amino-4-methylcou-marin (AMC) in a proteasome activity assay buffer (150 mM NaCl, 50 mM HEPES [pH 7.4], 5 mM ATP, and 5 mM EDTA), and then the fluorescence (excitation 380 nm and emission 460 nm) was measured every 10 min over 3 h using a microplate reader. The assay was performed with and without the proteasome inhibitor MG132 (10 μM).

Turning to `CC12CCC(C1)C(C)(C)C2O` (stereo not shown) [Fenchol], the survival/lifespan entry in assay [1] (CL2006 worms overexpressing human Aβ) and in assay [1] (CL4176 worms overexpressing human Aβ) was “significantly increased” in each case. Also, in assay [1] (wild-type N2 worms), the lifespan result is on record as “no significant impacts”. Moreover, the paralytic attacks result in assay [2] is listed as “decreased”. Besides, the Aβ accumulation result in assay [3] is reported as “significantly reduced”. In assay [4], the “number of senescent neuronal cells” value was “significantly reduced”. Further, the proteasomal activity entry in assay [5] was “significantly increased”.
